Values belong to the compound of their own block, whether it stands above or below them.
Assays:
COLO 205 [1] = test: Cell cycle arrest in human COLO 205 cells assessed as accumulation at G0/G1 phase at 200 nM measured after 24 hrs by propidium iodide staining based flow cytometry relative to control; format: functional
CDK4/Cyclin D3 = CDK4/Cyclin D3 (Homo sapiens, UniProt P11802); test: Inhibition of recombinant human full-length N-terminal GST-fused CDK4 (1 to 303 residues)/GST-tagged CyclinD3 (1 to 292 residues) expressed in baculovirus expression system using ULight-elF4E-binding protein 1 peptide as substrate measured after 30 mins by LANCE assay
CDK6/Cyclin D3 = CDK6/Cyclin D3 (Homo sapiens, UniProt Q00534); test: Inhibition of human full-length N-terminal GST tagged CDK6 (1 to 326 residues)/GST-tagged cyclinD3 (1 to 292 residues) expressed in baculovirus expression system using ULight-elF4E-binding protein 1 peptide as substrate measured after 30 mins by LANCE assay
COLO 205 [2] = test: Antiproliferative activity against human COLO 205 cells assessed as cell growth inhibition measured after 4 to 6 days by celltiter-glo luminescent cell viability assay; format: functional, cell-based
U-87 MG [3] = test: Antiproliferative activity against human U-87 MG cells assessed as cell growth inhibition measured after 4 to 6 days by celltiter-glo luminescent cell viability assay; format: functional, cell-based, U-87MG ATCC
MDA-MB-468 = test: Antiproliferative activity against human MDA-MB-468 cells assessed as cell growth inhibition measured after 4 to 6 days by celltiter-glo luminescent cell viability assay; format: functional, cell-based
[4] = Intrinsic clearance in human liver microsomes at 1 uM preincubated for 10 mins followed by NADPH addition and measured after 1 hr by LC-MS/MS analysis; format: ADME, Microsome; settings: time 70 min, read-out: CLH
[5] = Intrinsic clearance in rat liver microsomes at 1 uM preincubated for 10 mins followed by NADPH addition and measured after 1 hr by LC-MS/MS analysis; format: ADME, Microsome; settings: time 70 min, read-out: CLH
CYP1A2 = target: T1, CYP1A2 (Homo sapiens, UniProt P05177); test: Inhibition of CYP1A2 in human liver microsomes at 10 uM measured after 20 mins in presence of NADPH by LC-MS/MS analysis relative to control; format: ADME
T1 sequence (P05177 whole entry): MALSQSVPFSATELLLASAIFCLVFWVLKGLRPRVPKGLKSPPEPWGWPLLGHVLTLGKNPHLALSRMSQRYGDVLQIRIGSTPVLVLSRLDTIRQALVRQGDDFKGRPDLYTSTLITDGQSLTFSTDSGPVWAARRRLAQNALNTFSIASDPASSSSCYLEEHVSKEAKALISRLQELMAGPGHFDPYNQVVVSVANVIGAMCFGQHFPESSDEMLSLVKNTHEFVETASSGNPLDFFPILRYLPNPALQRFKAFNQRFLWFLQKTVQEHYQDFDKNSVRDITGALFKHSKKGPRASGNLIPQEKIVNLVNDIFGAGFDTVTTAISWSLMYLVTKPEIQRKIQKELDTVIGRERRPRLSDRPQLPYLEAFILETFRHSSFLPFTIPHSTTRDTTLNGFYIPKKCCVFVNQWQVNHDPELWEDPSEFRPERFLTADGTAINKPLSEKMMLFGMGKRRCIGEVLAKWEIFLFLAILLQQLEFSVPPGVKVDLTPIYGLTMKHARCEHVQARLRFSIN

CYP2C9 = CYP2C9 (Homo sapiens, UniProt P11712); test: Inhibition of CYP2C9 in human liver microsomes at 10 uM measured after 20 mins in presence of NADPH by LC-MS/MS analysis relative to control; format: ADME
CYP2C19 = CYP2C19 (Homo sapiens, UniProt P33261); test: Inhibition of CYP2C19 in human liver microsomes at 10 uM measured after 20 mins in presence of NADPH by LC-MS/MS analysis relative to control; format: ADME
CYP2D6 = CYP2D6 (Homo sapiens, UniProt P10635); test: Inhibition of CYP2D6 in human liver microsomes at 10 uM measured after 20 mins in presence of NADPH by LC-MS/MS analysis relative to control; format: ADME
CYP3A4 = CYP3A4 (Homo sapiens, UniProt P08684); test: Inhibition of CYP3A4 in human liver microsomes at 10 uM measured after 20 mins in presence of NADPH by LC-MS/MS analysis relative to control; format: ADME
Cytochrome P450 1A2 = target: T2, Cytochrome P450 1A2 (Homo sapiens, UniProt P05177); test: Time-dependent inhibition of CYP1A2 in human liver microsomes at 10 uM in presence of NADPH by LC-MS/MS analysis; format: ADME
T2 sequence (P05177 whole entry): T1 sequence (P05177 whole entry)

Cytochrome P450 2C9 = Cytochrome P450 2C9 (Homo sapiens, UniProt P11712); test: Time-dependent inhibition of CYP2C9 in human liver microsomes at 10 uM in presence of NADPH by LC-MS/MS analysis; format: ADME
Cytochrome P450 2C19 = Cytochrome P450 2C19 (Homo sapiens, UniProt P33261); test: Time-dependent inhibition of CYP2C19 in human liver microsomes at 10 uM in presence of NADPH by LC-MS/MS analysis; format: ADME
Cytochrome P450 2D6 = Cytochrome P450 2D6 (Homo sapiens, UniProt P10635); test: Time-dependent inhibition of CYP2D6 in human liver microsomes at 10 uM in presence of NADPH by LC-MS/MS analysis; format: ADME
Cytochrome P450 3A4 = Cytochrome P450 3A4 (Homo sapiens, UniProt P08684); test: Time-dependent inhibition of CYP3A4 in human liver microsomes at 10 uM in presence of NADPH by LC-MS/MS analysis; format: ADME
[6] = AUC (0 to t) in BALB/c mouse at 3 mg/kg, iv by LC-MS/MS analysis; format: ADME, organism-based; parameters: dose 3 mg/kg; settings: in vivo
[7] = Half life in BALB/c mouse at 3 mg/kg, iv by LC-MS/MS analysis; format: ADME, organism-based; settings: in vivo
[8] = Volume of distribution at steady state in BALB/c mouse at 3 mg/kg, iv by LC-MS/MS analysis; format: ADME, organism-based; settings: in vivo, read-out: Vdss
[9] = Cmax in BALB/c mouse at 10 mg/kg, po by LC-MS/MS analysis; format: ADME, organism-based; parameters: route oral, dose 10 mg/kg; settings: in vivo
[10] = AUC (0 to t) in BALB/c mouse at 10 mg/kg, po by LC-MS/MS analysis; format: ADME, organism-based; parameters: dose 10 mg/kg; settings: in vivo
[11] = Half life in BALB/c mouse at 10 mg/kg, po by LC-MS/MS analysis; format: ADME, organism-based; settings: in vivo
[12] = Oral bioavailability in BALB/c mouse at 10 mg/kg by LC-MS/MS analysis; format: ADME, organism-based; settings: in vivo
[13] = AUC (0 to t) in Sprague-Dawley rat at 3 mg/kg, iv by LC-MS/MS analysis; format: ADME, organism-based; parameters: dose 3 mg/kg; settings: in vivo
[14] = Half life in Sprague-Dawley rat at 3 mg/kg, iv by LC-MS/MS analysis; format: ADME, organism-based; settings: in vivo
[15] = Volume of distribution at steady state in Sprague-Dawley rat at 3 mg/kg, iv by LC-MS/MS analysis; format: ADME, organism-based; settings: in vivo, read-out: Vdss
[16] = Cmax in Sprague-Dawley rat at 6 mg/kg, po by LC-MS/MS analysis; format: ADME, organism-based; parameters: route oral, dose 6 mg/kg; settings: in vivo
[17] = AUC (0 to t) in Sprague-Dawley rat at 6 mg/kg, po by LC-MS/MS analysis; format: ADME, organism-based; parameters: dose 6 mg/kg; settings: in vivo
[18] = Half life in Sprague-Dawley rat at 6 mg/kg, po by LC-MS/MS analysis; format: ADME, organism-based; settings: in vivo
[19] = Oral bioavailability in Sprague-Dawley rat at 6 mg/kg by LC-MS/MS analysis; format: ADME, organism-based; settings: in vivo
U-87 MG [20] = test: Antitumor activity against human U-87 MG cells xenografted in BALB/c mouse assessed as tumor growth inhibition at 10 mg/kg, po qd for 16 days relative to control; format: functional, U-87MG ATCC; settings: 384 h, time 16 day, read-out: TGI
U-87 MG [21] = test: Antitumor activity against human U-87 MG cells xenografted in BALB/c mouse assessed as tumor growth at 10 mg/kg, po qd for 16 days relative to control; format: functional, U-87MG ATCC; settings: time 16 day
[22] = Toxicity in human U-87 MG cells xenografted BALB/c mouse assessed as body weight loss at 10 mg/kg, po qd for 16 days relative to control; format: organism-based; settings: in vivo, 384 h, time 16 day
[23] = target: Cyclin-dependent kinase 7/ cyclin H (Homo sapiens, UniProt P50613); test: Inhibition of CDK7/cyclin H (unknown origin); format: protein-complex assay
CDK9/cyclin T1 = CDK9/cyclin T1 (Homo sapiens, UniProt P50750)
Description: Inhibition of CDK9/cyclin T1 (unknown origin)

[24] = target: Cyclin-dependent kinase 1/cyclin B1 (Homo sapiens, UniProt P06493)
Description: Inhibition of CDK1/cyclin B (unknown origin)

CDK2/Cyclin A2 = CDK2/Cyclin A2 (Homo sapiens, UniProt P24941)
Description: Inhibition of CDK2/cyclin A2 (unknown origin)

Chain of CDK6/Cyclin D3 (Q00534 whole entry, looked up, the tested form may be a part): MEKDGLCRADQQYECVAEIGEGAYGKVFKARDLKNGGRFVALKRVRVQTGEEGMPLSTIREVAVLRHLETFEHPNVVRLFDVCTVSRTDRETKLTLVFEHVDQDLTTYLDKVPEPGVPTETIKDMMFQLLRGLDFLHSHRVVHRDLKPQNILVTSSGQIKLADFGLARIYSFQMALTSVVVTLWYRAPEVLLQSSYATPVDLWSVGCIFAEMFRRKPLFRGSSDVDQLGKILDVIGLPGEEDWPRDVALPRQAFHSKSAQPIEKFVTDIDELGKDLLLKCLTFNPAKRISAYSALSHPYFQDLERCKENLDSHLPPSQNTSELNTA
Chain of CDK4/Cyclin D3 (P11802 whole entry, the tested form may be a part): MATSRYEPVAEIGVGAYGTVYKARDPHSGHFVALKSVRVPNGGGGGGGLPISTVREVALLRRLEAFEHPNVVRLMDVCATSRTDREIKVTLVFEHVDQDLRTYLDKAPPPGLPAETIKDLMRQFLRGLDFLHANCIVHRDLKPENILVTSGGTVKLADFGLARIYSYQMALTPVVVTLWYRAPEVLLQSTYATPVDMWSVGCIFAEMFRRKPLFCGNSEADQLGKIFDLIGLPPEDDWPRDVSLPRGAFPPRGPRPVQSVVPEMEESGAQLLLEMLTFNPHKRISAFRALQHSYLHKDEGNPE
Chain of CDK4/Cyclin D3 (P30281 whole entry, further chain, the tested form may be a part): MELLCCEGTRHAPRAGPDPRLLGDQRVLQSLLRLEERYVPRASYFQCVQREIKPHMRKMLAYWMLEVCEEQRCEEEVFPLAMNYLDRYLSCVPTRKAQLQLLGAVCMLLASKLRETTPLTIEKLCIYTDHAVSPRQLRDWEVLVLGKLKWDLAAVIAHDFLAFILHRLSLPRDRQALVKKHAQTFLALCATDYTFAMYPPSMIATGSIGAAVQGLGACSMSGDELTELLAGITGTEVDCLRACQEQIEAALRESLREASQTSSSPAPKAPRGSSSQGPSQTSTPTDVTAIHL
Chain of Cytochrome P450 2C9 (P11712 whole entry): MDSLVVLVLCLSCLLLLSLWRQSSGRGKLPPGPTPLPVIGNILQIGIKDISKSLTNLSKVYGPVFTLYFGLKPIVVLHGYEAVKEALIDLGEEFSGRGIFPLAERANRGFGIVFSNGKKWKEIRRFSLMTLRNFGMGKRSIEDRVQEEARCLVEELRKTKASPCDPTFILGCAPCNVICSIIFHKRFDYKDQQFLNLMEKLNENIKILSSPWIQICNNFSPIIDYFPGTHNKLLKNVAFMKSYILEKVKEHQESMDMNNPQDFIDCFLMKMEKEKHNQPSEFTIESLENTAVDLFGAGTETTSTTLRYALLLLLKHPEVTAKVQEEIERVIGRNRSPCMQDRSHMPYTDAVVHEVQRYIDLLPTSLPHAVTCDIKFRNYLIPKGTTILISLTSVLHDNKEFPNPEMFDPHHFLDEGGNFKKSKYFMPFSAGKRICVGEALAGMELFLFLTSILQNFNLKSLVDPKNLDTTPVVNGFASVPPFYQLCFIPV
Chain of CYP2C9 (P11712 whole entry): as above
Chain of Cyclin-dependent kinase 7/ cyclin H (P51946 whole entry): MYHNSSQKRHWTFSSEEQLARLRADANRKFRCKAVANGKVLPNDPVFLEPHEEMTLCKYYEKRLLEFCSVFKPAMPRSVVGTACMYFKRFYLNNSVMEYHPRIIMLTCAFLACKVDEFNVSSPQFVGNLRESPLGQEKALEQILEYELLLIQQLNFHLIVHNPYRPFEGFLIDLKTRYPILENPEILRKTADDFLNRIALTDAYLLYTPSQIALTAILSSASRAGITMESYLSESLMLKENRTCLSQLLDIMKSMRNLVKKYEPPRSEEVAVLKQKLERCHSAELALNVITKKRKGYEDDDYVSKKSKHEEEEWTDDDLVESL
Chain of Cyclin-dependent kinase 7/ cyclin H (P50613 whole entry): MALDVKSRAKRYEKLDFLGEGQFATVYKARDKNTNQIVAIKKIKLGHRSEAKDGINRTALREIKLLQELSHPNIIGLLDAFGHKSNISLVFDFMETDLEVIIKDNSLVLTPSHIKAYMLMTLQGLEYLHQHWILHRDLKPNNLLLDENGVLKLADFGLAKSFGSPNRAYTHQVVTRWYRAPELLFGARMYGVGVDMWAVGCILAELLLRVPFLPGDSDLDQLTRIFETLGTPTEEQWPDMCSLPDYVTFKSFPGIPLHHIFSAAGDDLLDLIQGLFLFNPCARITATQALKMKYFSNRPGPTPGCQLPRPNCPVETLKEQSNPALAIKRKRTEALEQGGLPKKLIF
Chain of CYP3A4 (P08684 whole entry): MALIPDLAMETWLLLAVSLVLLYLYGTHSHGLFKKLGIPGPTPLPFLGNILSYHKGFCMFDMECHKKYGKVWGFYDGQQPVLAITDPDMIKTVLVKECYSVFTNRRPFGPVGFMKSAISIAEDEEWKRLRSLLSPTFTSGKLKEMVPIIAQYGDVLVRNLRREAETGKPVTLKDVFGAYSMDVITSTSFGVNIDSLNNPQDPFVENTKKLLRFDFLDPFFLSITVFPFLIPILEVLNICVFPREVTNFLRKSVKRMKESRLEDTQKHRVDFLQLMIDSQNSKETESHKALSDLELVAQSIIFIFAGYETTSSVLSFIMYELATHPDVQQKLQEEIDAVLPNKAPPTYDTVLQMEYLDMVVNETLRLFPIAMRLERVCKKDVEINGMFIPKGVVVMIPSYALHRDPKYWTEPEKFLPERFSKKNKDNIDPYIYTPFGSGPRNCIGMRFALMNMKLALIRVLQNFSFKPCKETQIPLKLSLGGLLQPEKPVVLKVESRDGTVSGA
Chain of Cytochrome P450 3A4 (P08684 whole entry): as above
Chain of CDK9/cyclin T1 (O60563 whole entry): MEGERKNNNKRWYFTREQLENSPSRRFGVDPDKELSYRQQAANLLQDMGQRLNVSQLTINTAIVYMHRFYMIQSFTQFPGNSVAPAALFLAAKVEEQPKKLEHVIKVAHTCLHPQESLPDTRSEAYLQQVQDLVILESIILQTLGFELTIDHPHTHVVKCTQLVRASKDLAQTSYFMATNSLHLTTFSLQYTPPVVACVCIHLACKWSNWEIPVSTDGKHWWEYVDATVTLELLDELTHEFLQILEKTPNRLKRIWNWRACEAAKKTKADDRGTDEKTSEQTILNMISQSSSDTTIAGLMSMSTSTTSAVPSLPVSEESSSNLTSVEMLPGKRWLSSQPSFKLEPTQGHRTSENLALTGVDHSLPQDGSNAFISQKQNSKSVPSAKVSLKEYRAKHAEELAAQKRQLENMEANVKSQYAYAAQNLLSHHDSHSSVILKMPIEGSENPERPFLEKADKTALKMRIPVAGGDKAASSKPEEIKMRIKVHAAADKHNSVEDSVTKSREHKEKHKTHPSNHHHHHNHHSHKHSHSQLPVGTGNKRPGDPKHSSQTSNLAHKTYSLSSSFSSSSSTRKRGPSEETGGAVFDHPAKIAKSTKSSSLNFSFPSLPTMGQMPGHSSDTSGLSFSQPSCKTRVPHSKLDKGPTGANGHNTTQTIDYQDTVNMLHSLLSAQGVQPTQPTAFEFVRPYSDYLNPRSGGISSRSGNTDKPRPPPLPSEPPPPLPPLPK
Chain of CDK9/cyclin T1 (P50750 whole entry): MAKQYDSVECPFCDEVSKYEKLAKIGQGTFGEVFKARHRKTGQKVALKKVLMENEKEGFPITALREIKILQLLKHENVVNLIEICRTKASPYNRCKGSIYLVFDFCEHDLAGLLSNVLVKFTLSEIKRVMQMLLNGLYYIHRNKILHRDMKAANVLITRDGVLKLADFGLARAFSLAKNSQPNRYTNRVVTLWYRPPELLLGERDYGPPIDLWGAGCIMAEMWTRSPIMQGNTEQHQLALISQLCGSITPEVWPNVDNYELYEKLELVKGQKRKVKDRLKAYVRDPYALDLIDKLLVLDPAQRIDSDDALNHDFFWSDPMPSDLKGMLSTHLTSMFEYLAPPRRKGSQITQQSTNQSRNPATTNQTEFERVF
Chain of Cytochrome P450 2C19 (P33261 whole entry): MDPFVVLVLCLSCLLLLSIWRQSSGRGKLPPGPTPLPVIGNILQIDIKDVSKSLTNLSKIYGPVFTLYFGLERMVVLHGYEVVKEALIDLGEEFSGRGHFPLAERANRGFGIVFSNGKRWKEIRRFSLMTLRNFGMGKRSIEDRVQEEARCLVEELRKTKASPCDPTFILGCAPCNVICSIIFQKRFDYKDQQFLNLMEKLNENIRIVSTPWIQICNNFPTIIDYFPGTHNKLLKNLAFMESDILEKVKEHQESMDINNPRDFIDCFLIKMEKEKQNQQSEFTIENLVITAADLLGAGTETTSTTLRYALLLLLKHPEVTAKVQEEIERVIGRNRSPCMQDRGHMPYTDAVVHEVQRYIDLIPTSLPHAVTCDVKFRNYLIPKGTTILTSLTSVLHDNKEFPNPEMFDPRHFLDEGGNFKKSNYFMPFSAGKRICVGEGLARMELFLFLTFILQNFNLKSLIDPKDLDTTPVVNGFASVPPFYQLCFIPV

- IC50 (CDK4/Cyclin D3): 2.7 nM
- IC50 (CDK6/Cyclin D3): 4.8 nM
- IC50 (COLO 205 [2]): 256 nM
- IC50 (U-87 MG [3]): 49.3 nM
- IC50 (MDA-MB-468): 984 nM
- microsomal CLint at 1 µM [4]: 6 µL/min/mg
- microsomal CLint at 1 µM [5]: 6 µL/min/mg
- inhibition at […], 10 µM (CYP1A2): 17%
- inhibition at […], 10 µM (CYP2C9): 12%
- inhibition at […], 10 µM (CYP2C19): 19%
- inhibition at […], 10 µM (CYP2D6): 7%
- inhibition at […], 10 µM (CYP3A4): 18%
- TDI (Cytochrome P450 1A2): Active
- TDI (Cytochrome P450 2C9): Not Active
- TDI (Cytochrome P450 2C19): Not Active
- TDI (Cytochrome P450 2D6): Not Active
- TDI (Cytochrome P450 3A4): Not Active
- AUCt [6]: 440 ng·h/mL
- half-life [7]: 4.64 h
- Vd [8]: 33.7 L/kg
- Cmax [9]: 570 ng/mL
- AUC(0-t) [10]: 775 ng·h/mL
- half-life [11]: 3.68 h
- bioavailability [12]: 53.1%
- AUCt [13]: 1334 ng·h/mL
- half-life [14]: 5.57 h
- Vd [15]: 35.7 L/kg
- Cmax [16]: 170 ng/mL
- AUC(0-t) [17]: 1780 ng·h/mL
- half-life [18]: 4.44 h
- bioavailability [19]: 66.9%
- IC50 [23]: 204 nM
- IC50 (CDK9/cyclin T1): 221 nM
- IC50 [24]: 2080 nM
- IC50 (CDK2/Cyclin A2): 60.3 nM
Compound: CC(=O)c1c(C)c2cnc(Nc3ccc(N4CCNCC4)cc3)nc2n2cc(C(C)(C)C)nc12
- Activity (COLO 205 [1]): 95.4%
- inhibition in vivo at 10 mg/kg (U-87 MG [20]): 70%
- T/C (U-87 MG [21]): 37%
- Activity [22]: < 20%

- IC50 (CDK4/Cyclin D3): 22.3 nM
- IC50 (CDK6/Cyclin D3): 86.6 nM
- IC50 (COLO 205 [2]): 2840 nM
- IC50 (U-87 MG [3]): > 10000 nM
Compound: CCOC(=O)c1cn2c(n1)c(C(C)=O)c(C)c1cnc(Nc3ccc(N4CCNCC4)cc3)nc12

- IC50 (CDK4/Cyclin D3): 13.5 nM
- IC50 (CDK6/Cyclin D3): 32.8 nM
- IC50 (COLO 205 [2]): 474 nM
- IC50 (U-87 MG [3]): 412 nM
Compound: CC(=O)c1c(C)c2cnc(Nc3ccc(N4CCNCC4)cc3)nc2n2cc(-c3ccccc3)nc12

- IC50 (CDK4/Cyclin D3): 9.9 nM
- IC50 (CDK6/Cyclin D3): 25.7 nM
- IC50 (COLO 205 [2]): 534 nM
- IC50 (U-87 MG [3]): 539 nM
Compound: CC(=O)c1c(C)c2cnc(Nc3ccc(N4CC5(CCOCC5)C4)cn3)nc2n2cc(C(C)C)nc12

- IC50 (CDK4/Cyclin D3): 271 nM
- IC50 (CDK6/Cyclin D3): 280 nM
Compound: Cc1cn2c(n1)c(C#N)c(C)c1cnc(Nc3ccc(Cl)cc3)nc12

- IC50 (CDK4/Cyclin D3): 10.3 nM
- IC50 (CDK6/Cyclin D3): 9 nM
- IC50 (U-87 MG [3]): 585 nM
Compound: Cc1c(C#N)c2nc(C(C)C)cn2c2nc(Nc3ccc(N4CCNCC4)cc3)ncc12
